PubChem BioAssay (NCI)
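Five concentrations, 48 hours, 96-well plates. GI50 is the concentration that inhibits growth by half. The concentration for full growth arrest is given as TGI.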

How the values were obtained:
Experiment in all cases: DTP human tumour cell line panel, 48 h
KM12 colon = system: KM12 colon
HCT-116 colon = system: HCT-116 colon
NCI-H226 lung = system: NCI-H226 lung
HCT-15 colon = system: HCT-15 colon
IGROV1 ovarian = system: IGROV1 ovarian
TK-10 renal = system: TK-10 renal
SK-MEL-2 melanoma = system: SK-MEL-2 melanoma
NCI/ADR-RES ovarian = system: NCI/ADR-RES ovarian
HCC-2998 colon = system: HCC-2998 colon
SR leukemia = system: SR leukemia
UACC-62 melanoma = system: UACC-62 melanoma
NCI-H460 lung = system: NCI-H460 lung
HOP-92 NSCLC = system: HOP-92 NSCLC
ACHN renal = system: ACHN renal
A549 NSCLC = system: A549 NSCLC
A498 renal = system: A498 renal
MALME-3M melanoma = system: MALME-3M melanoma
RXF 393 renal = system: RXF 393 renal
U251 CNS = system: U251 CNS
CCRF-CEM leukemia = system: CCRF-CEM leukemia
OVCAR-5 ovarian = system: OVCAR-5 ovarian
OVCAR-8 ovarian = system: OVCAR-8 ovarian
SK-MEL-28 melanoma = system: SK-MEL-28 melanoma
MOLT-4 leukemia = system: MOLT-4 leukemia
BT-549 breast = system: BT-549 breast
786-0 renal = system: 786-0 renal
LOX IMVI melanoma = system: LOX IMVI melanoma
EKVX NSCLC = system: EKVX NSCLC
HOP-62 NSCLC = system: HOP-62 NSCLC
UO-31 renal = system: UO-31 renal
MDA-MB-435 = system: MDA-MB-435
MDA-MB-231 breast = system: MDA-MB-231 breast
HS 578T breast = system: HS 578T breast
NCI-H23 lung = system: NCI-H23 lung
HT29 colon = system: HT29 colon
COLO 205 colon = system: COLO 205 colon
SF-295 CNS = system: SF-295 CNS
SW-620 colon = system: SW-620 colon
T-47D breast = system: T-47D breast
PC-3 prostate = system: PC-3 prostate
OVCAR-4 ovarian = system: OVCAR-4 ovarian
MCF7 breast = system: MCF7 breast
SN12C renal = system: SN12C renal
SK-OV-3 ovarian = system: SK-OV-3 ovarian
SNB-75 CNS = system: SNB-75 CNS
UACC-257 melanoma = system: UACC-257 melanoma
K-562 leukemia = system: K-562 leukemia
DU-145 prostate = system: DU-145 prostate
M14 melanoma = system: M14 melanoma
SNB-19 CNS = system: SNB-19 CNS
NCI-H522 lung = system: NCI-H522 lung
SF-268 CNS = system: SF-268 CNS
OVCAR-3 ovarian = system: OVCAR-3 ovarian
SF-539 CNS = system: SF-539 CNS
RPMI-8226 leukemia = system: RPMI-8226 leukemia
HL-60(TB) leukemia = system: HL-60(TB) leukemia
SK-MEL-5 melanoma = system: SK-MEL-5 melanoma
CAKI-1 renal = system: CAKI-1 renal

## CN(Cc1cccc(Cl)c1)c1ccc(CO)c(Cl)c1
KM12 colon
  GI50: 18.7 µM
  TGI: 43.3 µM
HCT-116 colon
  GI50: 481 nM
  TGI: 11.3 µM
NCI-H226 lung
  GI50: 113 nM
  TGI: 284 nM
HCT-15 colon
  GI50: 16.1 µM
  TGI: > 76.7 µM
IGROV1 ovarian
  GI50: 448 nM
  TGI: 4.16 µM
TK-10 renal
  GI50: 215 nM
  TGI: 1360 nM
SK-MEL-2 melanoma
  GI50: 9.88 µM
  TGI: 27.4 µM
NCI/ADR-RES ovarian
  GI50: 14.6 µM
  TGI: 44.1 µM
HCC-2998 colon
  GI50: 13.7 µM
  TGI: 34.1 µM
SR leukemia
  GI50: 22.4 µM
  TGI: 72.8 µM
UACC-62 melanoma
  GI50: 321 nM
  TGI: 3.75 µM
NCI-H460 lung
  GI50: 1440 nM
  TGI: 15.2 µM
HOP-92 NSCLC
  GI50: 3.15 µM
  TGI: 19.8 µM
ACHN renal
  GI50: 21.9 µM
  TGI: 93.5 µM
A549 NSCLC
  GI50: 5.19 µM
  TGI: 23.9 µM
A498 renal
  GI50: 41 nM
  TGI: 169 nM
MALME-3M melanoma
  GI50: 18.7 µM
  TGI: 42.3 µM
RXF 393 renal
  GI50: 8.55 µM
  TGI: 23.4 µM
U251 CNS
  GI50: 4.21 µM
  TGI: 19.2 µM
CCRF-CEM leukemia
  GI50: 22.7 µM
  TGI: > 73.6 µM
OVCAR-5 ovarian
  GI50: 602 nM
  TGI: 3.84 µM
OVCAR-8 ovarian
  GI50: 15.8 µM
  TGI: 53.8 µM
SK-MEL-28 melanoma
  GI50: 16.4 µM
  TGI: 43.9 µM
MOLT-4 leukemia
  GI50: 20 µM
  TGI: 56.6 µM
BT-549 breast
  GI50: 14.6 µM
  TGI: 34.5 µM
786-0 renal
  GI50: 12.4 µM
  TGI: 27.2 µM
LOX IMVI melanoma
  GI50: 14.2 µM
  TGI: 27.5 µM
EKVX NSCLC
  GI50: 18.4 µM
  TGI: 52.1 µM
HOP-62 NSCLC
  GI50: 6.77 µM
  TGI: 25.6 µM
UO-31 renal
  GI50: 8.41 µM
  TGI: 37.4 µM
MDA-MB-435
  GI50: 24.3 µM
  TGI: 85.5 µM
MDA-MB-231 breast
  GI50: 17.4 µM
  TGI: 59.9 µM
HS 578T breast
  GI50: 19.7 µM
  TGI: > 64.5 µM
NCI-H23 lung
  GI50: 11.5 µM
  TGI: 46.1 µM
HT29 colon
  GI50: 9.93 µM
  TGI: 31.2 µM
COLO 205 colon
  GI50: 7.39 µM
  TGI: 20.9 µM
SF-295 CNS
  GI50: 3.7 µM
  TGI: 32.1 µM
SW-620 colon
  GI50: 5.93 µM
  TGI: > 42.9 µM
T-47D breast
  GI50: 746 nM
  TGI: 5.17 µM
PC-3 prostate
  GI50: 18 µM
  TGI: > 54.3 µM
OVCAR-4 ovarian
  GI50: 2330 nM
  TGI: 16.5 µM
MCF7 breast
  GI50: 1550 nM
  TGI: 15.8 µM
SN12C renal
  GI50: 14.3 µM
  TGI: 37.2 µM
SK-OV-3 ovarian
  GI50: 8.16 µM
  TGI: 28.3 µM
SNB-75 CNS
  GI50: 14.7 µM
  TGI: 49.7 µM
UACC-257 melanoma
  GI50: 569 nM
  TGI: 2150 nM
K-562 leukemia
  GI50: 8.76 µM
  TGI: > 100 µM
DU-145 prostate
  GI50: 21 µM
  TGI: > 51.1 µM
M14 melanoma
  GI50: 17.5 µM
  TGI: 49.3 µM
SNB-19 CNS
  GI50: 27.3 µM
  TGI: > 100 µM
NCI-H522 lung
  GI50: 17.2 µM
  TGI: 41.4 µM
SF-268 CNS
  GI50: 24 µM
  TGI: > 53.5 µM
OVCAR-3 ovarian
  GI50: 3.46 µM
  TGI: 14 µM
SF-539 CNS
  GI50: 18.7 µM
  TGI: 38.7 µM
RPMI-8226 leukemia
  GI50: 12.2 µM
  TGI: 55 µM
HL-60(TB) leukemia
  GI50: 13.9 µM
  TGI: 45 µM
SK-MEL-5 melanoma
  GI50: 7.47 µM
  TGI: 20.7 µM
CAKI-1 renal
  GI50: 2360 nM
  TGI: 23.4 µM
